Non-standard residues stand in square brackets, D forms with d. Residues, ends and D or L forms follow the SMILES beside them. Dap = NC[C@H](N)C(=O)O
What was measured:
mMC5R = mMC5R (Mus musculus, UniProt P41149); assay: cAMP AlphaScreen agonist assay, HEK293 cells stably expressing mouse MC5R; settings: for EC50: read-out: mMC5R EC50, agonist, cAMP
mMC4R = mMC4R (Mus musculus, UniProt P56450); assay: cAMP AlphaScreen agonist assay, HEK293 cells stably expressing mouse MC4R; settings: for agonist activity/efficacy at mMC4R (in words): concentrations up to 100 μM; for mMC4R percent maximal stimulatory response at 100 μM: no EC50 determinable, relative to NDP-MSH; for EC50: read-out: mMC4R EC50, agonist, cAMP; for selectivity for the mMC4R over the mMC3R: agonist potency
Chain of mMC4R (P56450 whole entry): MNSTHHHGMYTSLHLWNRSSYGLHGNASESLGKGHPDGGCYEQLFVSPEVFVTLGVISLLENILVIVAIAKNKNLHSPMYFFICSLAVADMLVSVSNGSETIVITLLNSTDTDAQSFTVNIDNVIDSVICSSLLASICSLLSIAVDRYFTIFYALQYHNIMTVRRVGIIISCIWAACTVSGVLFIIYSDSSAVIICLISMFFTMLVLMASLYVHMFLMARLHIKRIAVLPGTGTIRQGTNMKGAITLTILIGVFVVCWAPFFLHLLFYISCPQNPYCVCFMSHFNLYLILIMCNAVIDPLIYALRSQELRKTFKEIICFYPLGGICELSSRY

mMC1R = mMC1R (Mus musculus, UniProt Q01727); assay: cAMP AlphaScreen agonist assay, HEK293 cells stably expressing mouse MC1R; settings: for EC50: read-out: mMC1R EC50, agonist, cAMP
Chain of mMC1R (Q01727 whole entry): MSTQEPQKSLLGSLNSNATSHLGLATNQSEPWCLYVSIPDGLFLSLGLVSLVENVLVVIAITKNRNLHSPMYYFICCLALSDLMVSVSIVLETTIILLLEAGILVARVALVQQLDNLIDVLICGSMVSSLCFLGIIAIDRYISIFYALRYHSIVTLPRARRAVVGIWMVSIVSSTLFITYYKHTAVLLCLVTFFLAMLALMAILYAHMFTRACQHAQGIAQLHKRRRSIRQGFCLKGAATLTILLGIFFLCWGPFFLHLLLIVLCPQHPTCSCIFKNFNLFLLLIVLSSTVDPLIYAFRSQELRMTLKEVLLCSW

mMC3R = mMC3R (Mus musculus, UniProt P33033); assay: cAMP AlphaScreen agonist assay, HEK293 cells stably expressing mouse MC3R; settings: for mMC3R percent maximal stimulatory response at 100 μM: no EC50 determinable, relative to NDP-MSH; for agonist activity/efficacy at mMC3R (in words): concentrations up to 100 μM; for EC50: read-out: mMC3R EC50, agonist, cAMP
Chain of mMC3R (P33033 whole entry): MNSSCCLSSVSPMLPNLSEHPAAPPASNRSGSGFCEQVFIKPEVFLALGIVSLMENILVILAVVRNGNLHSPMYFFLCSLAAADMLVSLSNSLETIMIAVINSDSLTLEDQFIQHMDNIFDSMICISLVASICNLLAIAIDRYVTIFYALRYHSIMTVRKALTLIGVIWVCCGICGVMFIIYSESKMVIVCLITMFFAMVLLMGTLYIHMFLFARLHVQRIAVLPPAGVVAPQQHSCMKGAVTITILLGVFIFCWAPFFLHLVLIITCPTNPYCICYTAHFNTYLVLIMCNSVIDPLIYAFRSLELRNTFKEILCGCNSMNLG

Chain of mMC5R (P41149 whole entry): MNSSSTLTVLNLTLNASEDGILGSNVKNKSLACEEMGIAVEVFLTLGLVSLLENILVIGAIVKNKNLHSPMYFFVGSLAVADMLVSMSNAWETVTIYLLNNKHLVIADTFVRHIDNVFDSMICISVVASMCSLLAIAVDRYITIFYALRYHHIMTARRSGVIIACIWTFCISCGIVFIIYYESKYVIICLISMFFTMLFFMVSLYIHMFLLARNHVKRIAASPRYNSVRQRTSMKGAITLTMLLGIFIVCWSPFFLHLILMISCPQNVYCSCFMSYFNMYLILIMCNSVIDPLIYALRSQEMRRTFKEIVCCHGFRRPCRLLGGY

SMILES | agonist activity/efficacy at mMC4R (in words) (mMC4R) | EC50 (mMC1R) | mMC3R percent maximal stimulatory response at 100 μM (mMC3R) | agonist activity/efficacy at mMC3R (in words) (mMC3R) | EC50 (mMC5R) | EC50 (mMC4R) | EC50 (mMC3R) | selectivity for the mMC4R over the mMC3R (mMC4R) | other results
N=C(N)NCCC[C@@H]1NC(=O)[C@@H](Cc2ccccc2)NC(=O)[C@@H]2CCCN2C(=O)[C@H]2CCCN2C(=O)[C@H](Cc2c[nH]c3ccccc23)NC1=O [MDE5-147-1c, c[Pro-DPhe-Arg-Trp-DPro]] (cyclo(P[dF]RW[dP])) | stimulated a fraction of the maximal NDP-MSH response | 1800 nM |  |  |  |  |  |  | mMC5R percent maximal stimulatory response at 100 μM (mMC5R; 100 μM, no EC50 determinable, relative to NDP-MSH): 75% @
N=C(N)NCCC[C@@H]1NC(=O)[C@@H](Cc2ccccc2)NC(=O)[C@H](Cc2c[nH]cn2)NC(=O)[C@@H]2CCCN2C(=O)[C@H]2CCCN2C(=O)[C@H](Cc2c[nH]c3ccccc23)NC1=O [MDE5-147-2c, c[Pro-His-DPhe-Arg-Trp-DPro]] (cyclo(PH[dF]RW[dP])) | stimulated a fraction of the maximal NDP-MSH response | 900 ± 200 nM | 60% @ | partially stimulated | 6000 nM |  |  |  | mMC3R percent maximal stimulatory response at 100 μM (mMC3R; listed as MDES-147-2c): 60%; mMC4R percent maximal stimulatory response at 100 μM (mMC4R): 65% @; mMC4R percent maximal stimulatory response at 100 μM (mMC4R; listed as MDES-147-2c): 65%
C[C@@H]1NC(=O)[C@H](CC(N)=O)NC(=O)[C@H](Cc2c[nH]c3ccccc23)NC(=O)[C@H](CCCNC(=N)N)NC(=O)[C@@H](Cc2ccccc2)NC(=O)[C@@H]2CCCN2C(=O)[C@H]2CCCN2C(=O)[C@H](Cc2ccccc2)NC1=O [MDE5-149-1c, c[Pro-DPhe-Arg-Trp-Asn-Ala-Phe-DPro]] (cyclo(P[dF]RWNAF[dP])) |  | 400 ± 200 nM |  | partially stimulated | 40 ± 10 nM | 130 ± 70 nM |  |  | decreased agonist potency at mMC5R relative to MDE5-149-2c (mMC5R; relative to MDE5-149-2c): 90 fold; decreased agonist potency at mMC4R relative to MDE5-149-2c (mMC4R; relative to MDE5-149-2c): 90 fold; decreased agonist potency at mMC1R relative to MDE5-149-2c (mMC1R; relative to MDE5-149-2c): 1140 fold
C[C@@H]1NC(=O)[C@H](CC(N)=O)NC(=O)[C@H](Cc2c[nH]c3ccccc23)NC(=O)[C@H](CCCNC(=N)N)NC(=O)[C@@H](Cc2ccccc2)NC(=O)[C@H](Cc2cnc[nH]2)NC(=O)[C@@H]2CCCN2C(=O)[C@H]2CCCN2C(=O)[C@H](Cc2ccccc2)NC1=O [MDE5-149-2c, c[Pro-His-DPhe-Arg-Trp-Asn-Ala-Phe-DPro]] (cyclo(H[dF]RWNAF[dP]P)) |  | 0.35 nM |  |  | 0.45 nM | 1.4 nM | 32 nM | 23 fold | 
C[C@@H]1NC(=O)[C@H](CN)NC(=O)[C@H](Cc2c[nH]c3ccccc23)NC(=O)[C@H](CCCNC(=N)N)NC(=O)[C@@H](Cc2ccccc2)NC(=O)[C@@H]2CCCN2C(=O)[C@H]2CCCN2C(=O)[C@H](Cc2ccccc2)NC1=O [MDE5-151-1c, c[Pro-DPhe-Arg-Trp-Dap-Ala-Phe-DPro]] (cyclo(P[dF]RW[Dap]AF[dP])) | full agonist | 190 nM |  | partial agonist | 46 ± 6 nM | 100 nM | 3000 nM |  | agonist activity/efficacy at mMC1R (in words) (mMC1R; concentrations up to 100 μM): partial agonist
C[C@@H]1NC(=O)[C@H](CC(N)=O)NC(=O)[C@H](Cc2c[nH]c3ccccc23)NC(=O)[C@H](CCCNC(=N)N)NC(=O)[C@@H](Cc2ccccc2)NC(=O)[C@@H]2CCCN2C(=O)[C@H]2CCCN2C1=O [MDE6-3-1c, c[Pro-DPhe-Arg-Trp-Asn-Ala-DPro]] (cyclo(P[dF]RWNA[dP])) |  |  | 55% @ | partially stimulated |  |  |  | > 100 fold | 

From patent US11124541B2, “Chimeric melanocortin ligands and methods of use thereof” (REGENTS OF THE UNIVERSITY OF MINNESOTA, priority 2016, dated 2021)
